Measurements: ChEMBL document CHEMBL1139807, “Discovery of (-)-6-[2-[4-(3-fluorophenyl)-4-hydroxy-1-piperidinyl]-1-hydroxyethyl]-3,4-dihydro-2(1H)-quinolinone--a potent NR2B-selective N-methyl D-aspartate (NMDA) antagonist for the treatment of pain” (Bioorg Med Chem Lett, 2007)

Columns and labels:
[1] = target: Voltage-gated inwardly rectifying potassium channel KCNH2 (Homo sapiens, UniProt Q12809); experiment: Displacement of [3H]bufuralol from hERG channel expressed in HEK293 cells
[2] = target: Cytochrome P450 2D6 (Homo sapiens, UniProt P10635); experiment: Displacement of [3H]bufuralol from CYP2D6; format: ADME
[3] = target: Glutamate receptor ionotropic, NMDA 2B (Rattus norvegicus, UniProt P35439+Q00960); experiment: Displacement of [3H]racemic CP-101606 from rat NR2B receptor in P2 membrane; format: cell membranes
[4] = Ratio of Half life of compound in human liver microsome HHM0168 to half life in human liver microsome HHM0168 in presence of CYP2D6; format: ADME; settings: microsomes
[5] = tested on: Rattus norvegicus; experiment: Effect on haloperidol catalepsy in po dosed rat assessed as latency to paw withdrawal; format: functional; settings: read-out: MED
[6] = target: hERG (KCNH2) (Homo sapiens, UniProt Q12809); experiment: Blockade of hERG channel expressed in HEK293 cells by electrophysiological method; format: cell-based; settings: HEK293 cells expressing hERG channel
Chain of hERG (KCNH2) (Q12809 whole entry): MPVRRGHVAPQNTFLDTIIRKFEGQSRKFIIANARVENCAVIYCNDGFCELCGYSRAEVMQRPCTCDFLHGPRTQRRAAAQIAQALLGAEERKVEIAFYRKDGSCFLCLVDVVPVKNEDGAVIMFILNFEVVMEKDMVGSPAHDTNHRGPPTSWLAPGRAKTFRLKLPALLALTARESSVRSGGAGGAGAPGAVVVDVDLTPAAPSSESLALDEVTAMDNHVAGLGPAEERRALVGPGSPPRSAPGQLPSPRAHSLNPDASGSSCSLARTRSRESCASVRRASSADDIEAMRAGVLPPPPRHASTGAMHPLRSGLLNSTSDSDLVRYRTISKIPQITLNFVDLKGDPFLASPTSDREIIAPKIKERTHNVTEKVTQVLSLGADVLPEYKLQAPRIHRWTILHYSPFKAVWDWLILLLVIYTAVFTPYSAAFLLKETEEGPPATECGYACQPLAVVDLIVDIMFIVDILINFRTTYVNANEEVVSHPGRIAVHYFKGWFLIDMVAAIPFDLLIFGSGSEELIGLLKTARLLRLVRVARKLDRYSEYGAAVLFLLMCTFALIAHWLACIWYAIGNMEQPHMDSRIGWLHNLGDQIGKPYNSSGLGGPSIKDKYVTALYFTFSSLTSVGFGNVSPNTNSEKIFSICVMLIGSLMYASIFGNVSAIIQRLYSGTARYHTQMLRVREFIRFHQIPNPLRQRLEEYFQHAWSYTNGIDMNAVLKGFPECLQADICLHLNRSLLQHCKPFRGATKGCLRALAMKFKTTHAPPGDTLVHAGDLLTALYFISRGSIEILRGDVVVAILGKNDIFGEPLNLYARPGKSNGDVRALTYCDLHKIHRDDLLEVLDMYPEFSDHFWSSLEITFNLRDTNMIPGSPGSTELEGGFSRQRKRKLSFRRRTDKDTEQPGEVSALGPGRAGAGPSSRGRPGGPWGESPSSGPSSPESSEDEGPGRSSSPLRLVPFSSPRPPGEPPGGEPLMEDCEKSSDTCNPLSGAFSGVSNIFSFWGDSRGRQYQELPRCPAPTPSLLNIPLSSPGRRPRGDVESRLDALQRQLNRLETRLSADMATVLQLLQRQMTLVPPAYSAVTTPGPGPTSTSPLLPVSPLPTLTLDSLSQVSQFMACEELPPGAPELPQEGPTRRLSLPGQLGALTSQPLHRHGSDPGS

Chain of Glutamate receptor ionotropic, NMDA 2B (Q00960 whole entry, one chain of several): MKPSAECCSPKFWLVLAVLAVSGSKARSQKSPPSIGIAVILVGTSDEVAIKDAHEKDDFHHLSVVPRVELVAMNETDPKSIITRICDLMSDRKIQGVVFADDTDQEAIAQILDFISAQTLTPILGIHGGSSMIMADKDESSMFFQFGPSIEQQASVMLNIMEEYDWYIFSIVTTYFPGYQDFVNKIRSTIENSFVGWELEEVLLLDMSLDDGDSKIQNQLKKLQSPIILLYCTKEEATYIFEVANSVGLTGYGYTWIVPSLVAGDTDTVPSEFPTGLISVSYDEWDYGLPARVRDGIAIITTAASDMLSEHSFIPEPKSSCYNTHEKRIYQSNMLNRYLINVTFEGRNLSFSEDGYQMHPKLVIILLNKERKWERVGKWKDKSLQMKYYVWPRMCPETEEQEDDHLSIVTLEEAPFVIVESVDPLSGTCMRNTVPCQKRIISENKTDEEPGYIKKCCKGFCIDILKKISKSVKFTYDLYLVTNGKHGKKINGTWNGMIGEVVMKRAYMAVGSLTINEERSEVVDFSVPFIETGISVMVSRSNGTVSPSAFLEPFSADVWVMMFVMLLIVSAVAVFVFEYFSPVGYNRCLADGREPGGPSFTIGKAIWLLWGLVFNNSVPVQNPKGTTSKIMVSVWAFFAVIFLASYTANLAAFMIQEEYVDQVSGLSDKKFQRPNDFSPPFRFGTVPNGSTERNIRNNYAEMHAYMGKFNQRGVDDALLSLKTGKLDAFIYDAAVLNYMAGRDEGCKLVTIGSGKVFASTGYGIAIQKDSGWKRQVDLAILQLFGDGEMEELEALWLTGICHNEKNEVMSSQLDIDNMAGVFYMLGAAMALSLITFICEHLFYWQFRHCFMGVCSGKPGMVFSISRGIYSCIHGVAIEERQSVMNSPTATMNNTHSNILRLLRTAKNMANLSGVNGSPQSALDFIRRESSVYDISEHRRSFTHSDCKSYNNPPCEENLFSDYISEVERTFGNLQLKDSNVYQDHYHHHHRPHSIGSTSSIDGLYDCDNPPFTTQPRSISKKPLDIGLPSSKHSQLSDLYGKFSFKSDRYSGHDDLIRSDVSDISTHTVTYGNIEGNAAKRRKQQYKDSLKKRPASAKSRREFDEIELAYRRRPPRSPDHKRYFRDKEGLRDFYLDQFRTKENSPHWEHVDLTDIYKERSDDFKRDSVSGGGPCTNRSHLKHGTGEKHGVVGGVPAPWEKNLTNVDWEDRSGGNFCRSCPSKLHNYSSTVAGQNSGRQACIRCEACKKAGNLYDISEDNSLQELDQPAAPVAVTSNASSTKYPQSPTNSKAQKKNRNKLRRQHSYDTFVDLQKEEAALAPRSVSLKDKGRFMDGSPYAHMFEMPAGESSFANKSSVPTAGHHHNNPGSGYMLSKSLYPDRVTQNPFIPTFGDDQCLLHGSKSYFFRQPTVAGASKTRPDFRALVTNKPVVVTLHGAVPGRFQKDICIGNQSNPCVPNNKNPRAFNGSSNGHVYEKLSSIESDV
Chain of Cytochrome P450 2D6 (P10635 whole entry): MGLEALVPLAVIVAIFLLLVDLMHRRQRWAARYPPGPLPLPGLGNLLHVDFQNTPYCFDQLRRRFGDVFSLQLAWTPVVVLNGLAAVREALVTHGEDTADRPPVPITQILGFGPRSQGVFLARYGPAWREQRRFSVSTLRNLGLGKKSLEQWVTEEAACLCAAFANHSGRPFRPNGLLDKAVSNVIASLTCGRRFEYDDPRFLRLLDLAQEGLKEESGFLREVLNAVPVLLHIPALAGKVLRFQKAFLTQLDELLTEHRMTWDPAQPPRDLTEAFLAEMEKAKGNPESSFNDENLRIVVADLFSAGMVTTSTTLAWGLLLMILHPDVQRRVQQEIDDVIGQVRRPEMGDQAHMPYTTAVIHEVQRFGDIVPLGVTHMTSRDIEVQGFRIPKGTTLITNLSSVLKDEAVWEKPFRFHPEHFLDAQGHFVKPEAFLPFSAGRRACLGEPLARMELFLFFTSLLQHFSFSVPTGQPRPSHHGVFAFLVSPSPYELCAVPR
Chain of Voltage-gated inwardly rectifying potassium channel KCNH2 (Q12809 whole entry): as the sequence (Q12809 whole entry) above

| Structure (SMILES) | IC50 [1] [µM] | IC50 [2] [µM] | IC50 [3] [µM] | Ratio [4] | minimal effective dose [5] [mg/kg] | IC20 [6] [µM] |
| --- | --- | --- | --- | --- | --- | --- |
| CC(C(O)c1ccc2c(c1)CNC(=O)N2)N1CCC(O)(c2ccc(F)cc2)CC1 (racemic) | 7.4 | > 30 | 0.0091 | 1 |  |  |
| COc1cccc(C2(O)CCN(C(C)C(O)c3ccc4c(c3)CCC(=O)N4)CC2)c1 (racemic) |  |  | 0.0083 |  | 30 |  |
| CC(C(O)c1ccc(O)c(Cl)c1)N1CCC(O)(c2ccc(F)cc2)CC1 (racemic) |  | 3.5 | 0.0056 | 1.6 |  |  |
| CC(C(O)c1ccc2c(c1)CCC(=O)N2)N1CCC(O)(c2ccc3c(c2)COCC3)CC1 (racemic) | 16 |  | 0.015 |  | > 30 |  |
| O=C1CCc2cc(C(O)CN3CCC(O)(c4cccc(F)c4)CC3)ccc2N1 (single isomer, unassigned; (-)) | 21 |  | 0.005 |  |  | 1.1 |
| C[C@@H]([C@@H](O)c1ccc(O)cc1)N1CCC(O)(c2ccccc2)CC1 [TRAXOPRODIL] | 10 |  |  |  |  | 0.15 |
| CC(C(O)c1ccc(O)c(-c2ccccc2)c1)N1CCC(O)(c2ccc(F)cc2)CC1 (racemic) |  | 8.4 | 0.57 |  |  |  |
| CC(C(O)c1ccc2[nH]c(=O)oc2c1)N1CCC(O)(c2ccc(F)cc2)CC1 (racemic) | 2.6 | 11 | 0.041 | 1 |  |  |
| CC(C(O)c1ccc2c(c1)CN(C)C(=O)N2)N1CCC(O)(c2ccc(F)cc2)CC1 (racemic) | 3.1 | > 30 | 0.014 | 1 |  |  |
| CC(C(O)c1ccc2c(c1)OCC(=O)N2)N1CCC(O)(c2ccc(F)cc2)CC1 (racemic) | 1.6 | > 30 | 0.0087 | 1 |  |  |
| CC(C(O)c1ccc2c(c1)COC(=O)N2)N1CCC(O)(c2ccc(F)cc2)CC1 (racemic) | 2.4 | > 30 | 0.018 | 1 |  |  |
| Cc1cc(C(O)C(C)N2CCC(O)(c3ccc(F)cc3)CC2)ccc1O (racemic) |  | < 0.3 |  |  |  |  |
| Cc1ccc(C2(O)CCN(C(C)C(O)c3ccc4c(c3)CCC(=O)N4)CC2)cc1 (racemic) |  |  | 0.0091 |  |  |  |
| CC(C(O)c1ccc(O)c(C(C)(C)C)c1)N1CCC(O)(c2ccc(F)cc2)CC1 (racemic) |  |  | > 5 |  |  |  |
| CC(C(O)c1ccc2c(c1)CCC(=O)N2)N1CCC(O)(c2ccc(F)cc2)CC1 (racemic) |  | > 30 | 0.011 |  |  |  |
| Cc1cc(O)ccc1C(O)C(C)N1CCC(O)(c2ccc(F)cc2)CC1 (racemic) |  | 3.9 | 0.016 | > 4.5 |  |  |
| CC(C(O)c1ccc2c(c1)CCC(=O)N2)N1CCC(O)(c2cccc(COc3ccccc3)c2)CC1 (racemic) |  |  | 0.0063 |  |  |  |
| CC(C(O)c1ccc2c(c1)CCC(=O)N2)N1CCC(O)(c2ccc(Cl)cc2)CC1 (racemic) |  |  | 0.0066 |  | 10 |  |
| O=C1CCc2cc(C(O)CN3CCC(O)(c4cccc(F)c4)CC3)ccc2N1 (racemic) | 13 |  | 0.0045 |  |  |  |
| O=C1CCc2cc(C(O)CN3CCC(O)(c4cccc(F)c4)CC3)ccc2N1 (single isomer, unassigned; (+)) | 9.8 |  | 0.0068 |  |  |  |
| CC(C(O)c1ccc2c(c1)CCC(=O)N2)N1CCC(O)(c2cccc(F)c2)CC1 (racemic) |  |  | 0.01 |  | 10 |  |
